The record followed here is paper PMC4879640 (Frontiers in Microbiology, 2016).

The experiment concerns T1, H6-PnpA (PNP 4-monooxygenase).
T1 construct: N-terminal His6 tag, pET-28a (NdeI-XhoI), E. coli Rosetta(DE3)pLysS; gene pnpA of the pnpABA1CDEF cluster (not pnpA1)
The class given is biochemical, Burkholderia sp. SJ98. Conditions: read-out: apparent Km.

As for `Cc1cc(O)ccc1[N+](=O)[O-]` [3-methyl-4-nitrophenol], the Michaelis-Menten constant (Km) (as a rule, the concentration of substrate that gives half-maximal velocity) is 20.3 ± 2.54 µM.
